The supplement of paper PMC10307832

How the values were obtained:
Assay in all cases: relative viability (nuclei count vs DMSO), 5 days (fraction); higher = more cells survive
[1] = compound: O=c1[nH]c2ccccc2n1C1CCN(CCCC(c2ccc(F)cc2)c2ccc(F)cc2)CC1 [Pimozide]
Outline: (§1)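 Viability here means nuclei in treated wells divided by nuclei in vehicle wells, reported as the median across plates. Only plates with control CV below 25% and at least one doubling passed. Lung cancer cell lines in 1536-well plates were exposed to five √10-spaced library-drug doses for 5 days and counted from 4× Hoechst images in MetaXpress.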

[2] = compound: Cc1sc2c(c1C)C(c1ccc(Cl)cc1)=N[C@@H](CC(=O)OC(C)(C)C)c1nnc(C)n1-2 [JQ1]
Outline: as §1

[3] = compound: Nc1ccn([C@@H]2O[C@H](CO)[C@@H](O)[C@@H]2O)c(=O)n1 [Cytarabine]
Outline: as §1

[4] = compound: Cc1cnc(-c2cnc(NCCNc3ccc(C#N)cn3)nc2-c2ccc(Cl)cc2Cl)[nH]1
Outline: as §1

[5] = compound: CC(=O)O[C@@]12CO[C@@H]1C[C@H](O)[C@@]1(C)C(=O)[C@H](O)C3=C(C)[C@@H](OC(=O)[C@H](O)[C@@H](NC(=O)OC(C)(C)C)c4ccccc4)C[C@@](O)([C@@H](OC(=O)c4ccccc4)[C@H]21)C3(C)C [Docetaxel]
Outline: as §1

[6] = compound: O=C(O)CCCCC(CCSCc1ccccc1)SCc1ccccc1 [CPI-613]
Outline: as §1

[7] = compound: COc1cc2nccc(Oc3ccc(NC(=O)Nc4cc(C)on4)c(Cl)c3)c2cc1OC [Tivozanib]
Outline: as §1

Row | Cell Line | relative viability ([1]; 0.08 µM) | relative viability ([1]; 0.253 µM) | relative viability ([1]; 0.8 µM) | relative viability ([1]; 2.53 µM) | relative viability ([1]; 8 µM) | relative viability ([2]; 0.04 µM) | relative viability ([2]; 0.4 µM) | relative viability ([2]; 1.265 µM) | relative viability ([2]; 4 µM) | relative viability ([3]; 0.005 µM) | relative viability ([3]; 0.01581 µM) | relative viability ([3]; 0.05 µM) | relative viability ([3]; 0.1581 µM) | relative viability ([3]; 0.5 µM) | relative viability ([4]; 0.08 µM) | relative viability ([4]; 0.253 µM) | relative viability ([4]; 0.8 µM) | relative viability ([4]; 2.53 µM) | relative viability ([5]; 0.0002 µM) | relative viability ([5]; 0.000632 µM) | relative viability ([5]; 0.002 µM) | relative viability ([5]; 0.006325 µM) | relative viability ([5]; 0.02 µM) | relative viability ([6]; 5 µM) | relative viability ([6]; 15.81 µM) | relative viability ([6]; 50 µM) | relative viability ([6]; 158.11 µM) | relative viability ([6]; 500 µM) | relative viability ([7]; 0.005 µM) | relative viability ([7]; 0.01581 µM) | relative viability ([7]; 0.05 µM) | relative viability ([7]; 0.1581 µM) | relative viability ([7]; 0.5 µM) | relative viability ([2]; 0.1265 µM)
1 | HCC-15 | 1.05 | 0.965 | 0.725 | 0.961 | 0.9 | 0.97 | 0.859 | 0.656 | 0.6 | 1.07 | 0.988 | 0.966 | 0.828 | 0.547 | 1.06 | 0.686 | 0.953 | 0.892 | 0.8 | 0.536 | 0.229 | 0.257 | 0.149 | 0.96 | 0.914 | 0.908 | 0.465 | 0.264 | 0.962 | 0.922 | 0.949 | 1.07 | 0.89 | 
2 | NCI-H522 | 0.93 | 0.885 | 0.868 | 0.893 | 0.906 | 0.957 | 0.793 | 0.457 | 0.425 | 0.868 | 0.878 | 0.762 | 0.566 | 0.53 | 1.07 | 1.01 | 1.02 | 0.873 | 0.927 | 0.727 | 0.689 | 0.579 | 0.389 | 0.864 | 0.944 | 1.09 | 0.921 | 0.53 | 0.961 | 1.21 | 0.925 | 0.802 | 0.787 | 0.915
3 | NCI-H1666 | 0.953 | 0.983 | 0.934 | 0.909 | 0.909 | 0.94 | 0.848 | 0.711 | 0.64 | 1 | 0.849 | 0.803 | 0.56 | 0.573 | 0.983 | 0.929 | 1.06 | 0.998 | 0.86 | 0.876 | 0.616 | 0.6 | 0.421 | 0.964 | 0.945 | 0.837 | 0.696 | 0.323 | 0.965 | 0.965 | 1.02 | 0.99 | 1.02 | 0.965
4 | NCI-H1975 | 0.916 | 0.941 | 0.92 | 0.966 | 0.775 | 0.953 | 0.782 | 0.597 | 0.53 | 1.07 | 1.08 | 0.987 | 0.546 | 0.35 | 0.859 | 0.888 | 0.813 | 0.647 | 0.916 | 0.702 | 0.344 | 0.213 | 0.168 | 0.919 | 0.901 | 0.984 | 0.87 | 0.075 | 0.842 | 0.922 | 0.991 | 0.852 | 0.786 | 0.643
5 | EKVX |  | 0.906 | 0.923 | 0.978 | 0.984 | 0.997 | 0.939 | 0.827 | 0.769 | 1.02 | 0.913 | 0.694 | 0.364 | 0.362 | 1 | 0.824 | 0.975 | 0.835 | 0.97 | 0.874 | 0.462 | 0.262 | 0.176 | 0.935 | 0.959 | 0.932 | 0.628 | 0.935 | 0.908 | 0.989 | 1.09 | 0.939 | 0.971 | 0.781
6 | NCI-H650 | 0.969 | 0.914 | 0.839 | 0.997 | 1.12 | 0.946 | 0.78 | 0.365 | 0.298 | 0.893 | 0.581 | 0.328 | 0.234 | 0.205 | 1.03 | 1.01 | 0.797 | 0.783 | 0.871 | 0.456 | 0.343 | 0.257 | 0.187 | 0.937 | 0.803 | 1.05 | 0.621 | 0.716 | 0.86 | 0.979 | 0.935 | 0.607 | 0.706 | 0.628
7 | NCI-H2023 | 0.993 | 0.961 | 0.82 | 0.858 | 0.778 | 0.893 | 0.439 | 0.243 | 0.207 | 0.542 | 0.282 | 0.172 | 0.107 | 0.0892 | 1.32 | 0.794 | 1.06 | 0.939 | 0.846 | 0.547 | 0.147 | 0.12 | 0.0751 | 0.926 | 0.836 | 0.91 | 0.0969 | 0.0098 | 0.966 | 0.951 | 0.927 | 0.847 | 0.923 | 0.665
8 | HARA | 0.812 | 0.995 | 0.876 | 0.952 | 0.908 | 0.867 | 0.533 | 0.322 | 0.288 | 0.788 | 0.716 | 0.397 | 0.24 | 0.221 | 1.01 | 0.737 | 0.859 | 0.833 | 0.796 | 0.46 | 0.197 | 0.188 | 0.0932 | 0.909 | 0.862 | 0.984 | 0.6 | 0.0433 | 0.928 | 0.963 | 0.995 | 0.937 | 0.976 | 0.569
9 | NCI-H1993 | 0.822 | 0.824 | 0.816 | 0.969 | 0.912 | 0.919 | 0.922 | 0.663 | 0.709 | 0.941 | 0.916 | 0.764 | 0.655 | 0.519 | 0.951 | 0.789 | 1.03 | 1.07 | 0.778 | 0.964 | 0.806 | 0.597 | 0.5 | 0.84 | 0.932 | 0.967 | 0.717 | 0.439 | 0.945 | 0.867 | 1.13 | 0.589 | 0.762 | 0.994
